Results: patent publication US20020169296A1, “Linked, sequence-specific DNA-binding molecules” (priority 2000, published 2002)
Read-outs that look alike come from different tables or passages of the source.

Assays:
[1] = tested on: Drosophila histone SAR probe (clustered/long AT-tracts); test: DNase I footprinting on SAR probe; assay type: binding; settings: for Kd: apparent dissociation constant, SAR probe, read-out: Kdapp SAR
Method: Since satellite I is composed of exclusively A and T bases, it constitutes an ‘ideal’ binding substrate for oligopyrroles. But to obtain SAR-specific compounds, molecules are required that preferably bind its clustered, irregularly spaced AT-tracts. Binding studies were carried out with P9, P7 and P13 on the Drosophila histone SAR probe which contains the following clustered/long AT-tracts (W15N3W17N5W16N13W8NW6 where N is any base, see also FIG. 3D). […] The ratio of these two affinities is used (KappW9/KappSAR) as an empirical measure of SAR specificity. For all compounds tested thus far, this value (referred to as SAR preference factor) was around unity (Table 3).
(§1) Fragments were purified on low-melt agarose gels and then cloned into a modified pSP64 vector, cut by BamHI and BglII. End-labeling was carried out following digestion with HindIII and a fill-in reaction with Klenow DNA polymerase. The labeled plasmid was cut with PvuII and the target fragments purified from low-melting agarose gels. The 657 bp EcoRl/Hinf1 fragment of the Drosophila histone SAR was cloned into the SmaI site of the modified pSP64 plasmid. This SAR probe was end-labeled following digestion with EcoRl, then cut with ClaI and the resulting 347 bp fragment purified from low-melting agarose gels.
(§2) All reactions were performed in a total volume of 40 μl. A polyamide stock solution or buffer (for reference lanes) was added to an assay buffer containing 20 kcpm radiolabeled DNA, affording final concentrations of 10 mM Tris-HCl (pH 7.4), 10 mM KCl, 10 mM MgCl, 5 mM CaCl2, 0.5 mM EDTA, 0.5 mM EGTA, 1 mM DTT and 0.1% digitonine. The solutions were allowed to equilibrate for at least 2 h at room temperature. Footprinting reactions were initiated by the addition of 2 μl of a DNase stock solution (containing −100 pg DNase I in buffer) and allowed to proceed for 2 min at room temperature. The reactions were stopped by addition of 10 μl of a solution containing 1.25 M NaCl, 100 mM EDTA. Next, 5 μl of a 1% SDS solution was added, followed by 2 μl of a solution containing 1 μg poly(dA-dT), 1 μg salmon sperm DNA and 10 μg glycogen and the DNA was ethanol precipitated (20 min at −20° C.). The reactions were resuspended in 4 μl of 80% formamide loading buffer, denatured 10 min at 85° C., cooled on ice and electrophoresed on 8% polyacrylamide denaturing gels (5% cross-link, 8 M urea) at 30 W for 1 h. The gels were dried and exposed o/n at −70° C.

[2] = tested on: W9 probe (isolated 9 bp AT-tract); test: DNase I footprinting on W9 probe; assay type: binding; settings: for Kd: apparent dissociation constant, read-out: Kdapp W9
Excerpt: To target AT-tracts, the principal component of satellite I, III and SARs), a pyrrole pentamer was synthesized by facile solid phase chemistry in which five pyrrole (Py) aromatic amino acid rings are linked covalently by amide bonds (Baird and Dervan, 1996). The resulting compound, termed P7 had the sequence Py-Py-Py-Py-Py-β-Dp (where β=β-alanine and Dp=dimethylaminopropylamide). This compound is expected to bind 7 successive A or T base pairs (Ws) according to the n+1 rule where n is the number of amides (Youngquist and Dervan, 1985). The DNA binding properties of P7 were assessed by DNAse I footprinting experiments using a synthetic probe containing isolated, repeated AT-tracts of 9 Ws (W9, FIG. 2A). By visual inspection, the apparent dissociation constant (Kapp) for P7 was estimated to be approximately 80 nM (Table 3).
were hybridized to obtain the W9 probe, oligomerized by ligation and digested with BamHl and BglII to obtain different tandem repeats. The following oligonucleotides were prepared identically:
as §1, §2

[3] = tested on: sperm nuclei (condensation to chromatids); test: Chromosome condensation of sperm nuclei in mitotic Xenopus egg extracts; assay type: biochemical; settings: for reversal of condensation inhibition by competitor oligonucleotide: Lex10 1 μM
Excerpt: Mitotic Xenopus egg extracts convert added nuclei and sperm to chromatids in vitro. This chromosome condensation process requires topoisomerase II (Adachi et al., 1991), the protein complex condensin (Hirano T, 1997) and presumably other unidentified activities present in the mitotic extract. First, chromatin is remodeled and nuclei then proceed quite synchronously through a number of morphologically distinguishable steps (Hirano and Mitchison, 1991). Remodeling is morphological manifested by swelling of the nuclei which involves exchange of basic sperm-specific proteins for H2A/H2B and the incorporation of histone B4 (Dimitrov S, 1994).
Pyrrole drugs were added to the extract together with the sperm or after the remodeling step (at 10 minutes) and the extent of condensation was determined after 120 min. At this time point, the conversion of all sperm nuclei to clusters of individual chromatids is complete in the absence of drug (FIG. 8A, control). […] Addition of this compound at 125 to 250 nM (indicated) arrested this process at the so-called early ‘ruffle’ stage (FIG. 8A). These structures retain the swollen sperm shape, but they have peripheral blebs (ruffles) and a slightly heterogeneous interior. At this drug concentration, no chromatids are seen. If the concentration of Lex10 is raised to 500 nM, we observed an even earlier arrest as evidenced by the accumulation of swollen, remodeled sperm-shaped nuclei containing a homogeneous interior and smooth periphery. […] The monomer P7 was also tested but we observed no inhibition with the pyrrole pentamer up to the highest concentration (8 μM) tested. Condensation was inhibited at a ruffle stage with a P9 concentration of 2 μM (not shown).
In the experiment shown in FIG. 8B, Lex10 was added to the extract at a final concentration of 1 μM (several fold above the minimum inhibitory concentration) after which competitor oligonucleotides were added at different stages. Three different oligonucleotides of similar size were used: the SAR oligo contains two large clustered AT-tracts of the SAR probe (W17N5W15), the W9 oligo has a single AT tract of 9 base pairs and the GAGAA oligo harbors 5 tandem GAGAA repeats.
Topoisomerase II inhibition and chromosome assembly were as described previously (Girard et al., 1998, Strick and Laemmli, 1995). Affinity cleavage experiments was performed as described elsewhere (Turner et al., 1997).

[4] = tested on: Drosophila satellite III chromatin (topoisomerase II cleavage); test: Topoisomerase II cleavage in satellite III of Kc nuclei in Xenopus egg extracts with VM26; assay type: biochemical

CN(C)CCCNC(=O)CCNC(=O)c1cc(NC(=O)c2cc(NC(=O)c3cc(NC(=O)CCNC(=O)c4cc(NC(=O)c5cc(NC(=O)c6cc(NC(=O)CCNC(=O)c7cc(NC(=O)c8cc(NC(=O)c9cccn9C)cn8C)cn7C)cn6C)cn5C)cn4C)cn3C)cn2C)cn1C [Compound P13, PyPyPy-β-PyPyPy-β-PyPyPy-β-Dp]
Ratio (KappW9/KappSAR, SAR preference factor) [1]: 0.8 | Kd [1]: 1.25 nM | ligand concentration giving nearly complete protection (coating) of the W9 probe [2]: ≥ 62.5 nM | GC tolerance / AT-specificity of footprint ([2]; W9 probe, flanking mixed sequences): marked tendency to protect GC base pairs | Kd ([2]; W9 probe): 1 nM

(Py)3-β-(Py)3-(Ao)3-(Py)5-β-Dp [Lex18]
Ratio (KappW9/KappSAR, SAR preference factor) [1]: 100 | Kd [1]: 1 nM | Kd ([2]; W9 probe): 100 nM

PyPyPyPyPy-β-Dp-E-AoAoAo-PyPyPyPyPy-β-Dp [Lex9]
Ratio (KappW9/KappSAR, SAR preference factor) [1]: 2 | Kd [1]: 1.75 nM | SAR specificity factor after tagging with fluorescent label ([1]; value of the tagged derivative): 25 | Kd ([2]; W9 probe): 3.5 nM | inhibition of condensation ([3]; 250 to 500 nM): Little inhibition | stimulation of topoisomerase II cleavage in satellite III [4]: much reduced cleavage stimulation

F*-γ-(Py)3-β-(Py)3-β-Dp-Glu-(Ao)3-(Py)5-β-Dp [Lex10F]
Ratio (KappW9/KappSAR, SAR preference factor) [1]: 20 | Kd [1]: 1 nM | Kd ([2]; W9 probe): 20 nM | reduction of binding affinity upon fluorescein tagging ([2]; versus untagged compound): only a minor reduction in affinity

F*-γ-(Py)5-β-Dp-Glu-(Ao)3-(Py)5-β-Dp [Lex9F]
Ratio (KappW9/KappSAR, SAR preference factor) [1]: 25 | Kd [1]: 100 nM | Kd ([2]; W9 probe): 2500 nM

PyPyPy-β-PyPyPy-β-Dp-E-AoAoAo-PyPyPyPyPy-β-Dp [Lex10]
affinity for SAR lower than that of MATH20 [1]: approximately 100 | Kd [1]: 0.28 nM | Kd ([2]; W9 probe): 20 nM | concentration giving even earlier arrest (swollen, remodeled sperm-shaped nuclei) [3]: 500 nM | higher concentration than MATH20 for inhibition of condensation [3]: 80 fold | reversal of condensation inhibition by competitor oligonucleotide ([3]; 360 ng of W9 or GAGAA oligo): did not reverse the block | reversal of condensation inhibition by competitor oligonucleotide ([3]; 50 to 100 ng SAR oligo): completely reversed | concentration at which inhibition of topoisomerase II cleavage occurs abruptly [4]: around 600 nM | stimulation of topoisomerase II cleavage in satellite III [4]: does not stimulate | inhibition of topoisomerase II cleavage in satellite III ([4]; 1 μM): inhibits cleavage of topoisomerase II completely

CN(C)CCCNC(=O)CCNC(=O)c1cc(NC(=O)c2cc(NC(=O)c3cc(NC(=O)c4cc(NC(=O)c5cccn5C)cn4C)cn3C)cn2C)cn1C [Compound P7, Py-Py-Py-Py-Py-β-Dp]
Ratio (KappW9/KappSAR, SAR preference factor) [1]: 2.3 | Kd [1]: 35 nM | Kd ([2]; W9 probe, listed as P10): 80 nM | Kd ([2]; W9 probe): ~80 nM | concentration inhibiting chromosome condensation (block at ruffle stage) ([3]; 120 min): > 8 µM | stimulation of topoisomerase II cleavage in satellite III [4]: massively stimulated

(Py)3-β-(Py)3-β-Dp-F* [Compound P9F]
Ratio (KappW9/KappSAR, SAR preference factor) [1]: 4 | increase of SAR specificity upon fluorescein tagging [1]: about 4 fold | Kd [1]: 1 nM | Kd ([2]; W9 probe): 4 nM

F*-γ-(Py)5-β-Dp [Compound P7F]
Ratio (KappW9/KappSAR, SAR preference factor) [1]: 2.5 | Kd [1]: 1200 nM | Kd ([2]; W9 probe): 3000 nM
